Data published in US9409884B2 (Rigel Pharmaceuticals, Inc., priority 2012, dated 2016).

Molecular target: AMPK
Assay: AMPK activation, enzyme-linked immunosorbent assay
Format: biochemical
Conditions: Table 13, compounds of Table 6
Procedure, shortened: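 AMPK activation by test compounds was measured by enzyme-linked immunosorbent assay.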

| EC50 [µM] | Structure (SMILES) |
| --- | --- |
| < 0.1 | COc1ccc(CN2CCC(NC(=O)c3cc4cc(C(=O)N5CCN(Cc6ccc(S(=O)(=O)C7CC7)cc6)CC5)ccc4o3)CC2)cc1F [Compound 6-131, 5-(4-(4-(cyclopropylsulfonyl)benzyl)piperazine-1-carbonyl)-N-(1-(3-fluoro-4-methoxybenzyl)piperidin-4-yl)benzofuran-2-carboxamide] |
| < 0.1 | COc1ccc(CN2CCC(NC(=O)c3cc4cc(C(=O)N5CCN(Cc6ccc(S(C)(=O)=O)c(C(F)(F)F)c6)CC5)ccc4o3)CC2)cc1F [Compound 6-132, N-(1-(3-fluoro-4-methoxybenzyl)piperidin-4-yl)-5-(4-(4-(methylsulfonyl)-3-(trifluoromethyl)benzyl)piperazine-1-carbonyl) benzofuran-2-carboxamide] |
| < 0.1 | COc1ccc(CN2CCC(NC(=O)c3cc4cc(C(=O)N5CCN(Cc6ccc(S(C)(=O)=O)c(Cl)c6)CC5)ccc4o3)CC2)cc1F [Compound 6-133, 5-(4-(3-chloro-4-(methylsulfonyl)benzyl)piperazine-1-carbonyl)-N-(1-(3-fluoro-4-methoxybenzyl)piperidin-4-yl)benzofuran-2-carboxamide] |
| < 0.1 | COc1ccc(CN2CCC(NC(=O)c3cc4cc(C(=O)N5CCN(Cc6ccc(S(=O)(=O)C(F)(F)F)cc6)CC5)ccc4o3)CC2)cc1F [Compound 6-134, N-(1-(3-fluoro-4-methoxybenzyl)piperidin-4-yl)-5-(4-(4-(trifluoromethylsulfonyl)benzyl)piperazine-1-carbonyl)benzofuran-2-carboxamide] |
| < 0.1 | CS(=O)(=O)c1ccc(OC2CCN(C(=O)c3ccc4oc(C(=O)NC5CCN(Cc6ccc(OC(F)(F)F)cc6)CC5)cc4c3)CC2)cc1 [Compound 6-135, 5-(4-(4-(methylsulfonyl)phenoxy)piperidine-1-carbonyl)-N-(1-(4-(trifluoromethoxy)benzyl)piperidin-4-yl)benzofuran-2-carboxamide] |
| < 0.1 | O=C(NC1CCN(Cc2ccc(OC(F)(F)F)cc2)CC1)c1cc2cc(C(=O)N3CCC(Oc4ccc(S(=O)(=O)C(F)(F)F)cc4)CC3)ccc2o1 [Compound 6-136, N-(1-(4-(trifluoromethoxy)benzyl)piperidin-4-yl)-5-(4-(4-(trifluoromethylsulfonyl)phenoxy)piperidine-1-carbonyl)benzofuran-2-carboxamide] |
| < 0.1 | COc1ccc(CN2CCC(NC(=O)c3cc4cc(C(=O)N5CCC(Oc6ccc(S(=O)(=O)C(F)(F)F)cc6)CC5)ccc4o3)CC2)cc1F [Compound 6-137, N-(1-(3-fluoro-4-methoxybenzyl)piperidin-4-yl)-5-(4-(4-(trifluoromethylsulfonyl)phenoxy)piperidine-1-carbonyl)benzofuran-2-carboxamide] |
| < 0.1 | CS(=O)(=O)c1ccc(CN2CCN(C(=O)c3ccc4oc(C(=O)NC5CCN(Cc6ccc(OC(F)(F)F)c(F)c6)CC5)cc4c3)CC2)cc1 [Compound 6-138, N-(1-(3-fluoro-4-(trifluoromethoxy)benzyl)piperidin-4-yl)-5-(4-(4-(methylsulfonyl)benzyl)piperazine-1-carbonyl) benzofuran-2-carboxamide] |
| < 0.1 | O=C(NC1CCN(Cc2ccc(OC(F)(F)F)c(F)c2)CC1)c1cc2cc(C(=O)N3CCN(c4cccc(C(F)(F)F)c4)CC3)ccc2o1 [Compound 6-139, N-(1-(3-fluoro-4-(trifluoromethoxy)benzyl)piperidin-4-yl)-5-(4-(3-(trifluoromethyl)phenyl)piperazine-1-carbonyl) benzofuran-2-carboxamide] |
| < 0.1 | O=C(NC1CCN(Cc2ccc(OC(F)(F)F)cc2)CC1)c1cc2cc(C(=O)N3CCN(c4cccc(C(F)(F)F)c4)CC3)ccc2o1 [Compound 6-140, N-(1-(4-(trifluoromethoxy)benzyl)piperidin-4-yl)-5-(4-(3-(trifluoromethyl)phenyl)piperazine-1-carbonyl) benzofuran-2-carboxamide] |
| < 0.1 | COc1ccc(CN2CCC(NC(=O)c3cc4cc(C(=O)N5CCN(Cc6cccc(S(C)(=O)=O)c6)CC5)ccc4o3)CC2)cc1F [Compound 6-141, N-(1-(3-fluoro-4-methoxybenzyl)piperidin-4-yl)-5-(4-(3-(methylsulfonyl)benzyl)piperazine-1-carbonyl) benzofuran-2-carboxamide] |
| < 0.1 | COc1ccc(CN2CCC(NC(=O)c3cc4cc(C(=O)N5CCN(Cc6cccc(S(C)(=O)=O)c6)CC5)ccc4n3C)CC2)cc1F [Compound 6-142, N-(1-(3-fluoro-4-methoxybenzyl)piperidin-4-yl)-1-methyl-5-(4-(3-(methylsulfonyl)benzyl)piperazine-1-carbonyl)-1H-indole-2-carboxamide] |
| < 0.1 | COc1ccc(CN2CCC(NC(=O)c3cc4cc(C(=O)N5CCN(Cc6ccc(Br)c(S(C)(=O)=O)c6)CC5)ccc4o3)CC2)cc1F [Compound 6-143, 5-(4-(4-bromo-3-(methylsulfonyl)benzyl)piperazine-1-carbonyl)-N-(1-(3-fluoro-4-methoxybenzyl)piperidin-4-yl)benzofuran-2-carboxamide] |
| < 0.1 | CS(=O)(=O)c1ccc(CN2CCN(C(=O)c3ccc4oc(C(=O)NC5CCN(Cc6ccc(C(F)(F)F)cc6)CC5)cc4c3)CC2)cc1 [Compound 6-144, 5-(4-(4-(methylsulfonyl)benzyl)piperazine-1-carbonyl)-N-(1-(4-(trifluoromethyl)benzyl)piperidin-4-yl)benzofuran-2-carboxamide] |
| < 0.1 | CS(=O)(=O)c1ccc(CN2CCN(C(=O)c3ccc4oc(C(=O)NC5CCN(Cc6ccc(C#N)c(F)c6)CC5)cc4c3)CC2)cc1 [Compound 6-145, N-(1-(4-cyano-3-fluorobenzyl)piperidin-4-yl)-5-(4-(4-(methylsulfonyl)benzyl)piperazine-1-carbonyl) benzofuran-2-carboxamide] |
| < 0.1 | CS(=O)(=O)c1ccc(CN2CCN(C(=O)c3ccc4oc(C(=O)NC5CCN(Cc6cccc(OC(F)(F)F)c6)CC5)cc4c3)CC2)cc1 [Compound 6-146, 5-(4-(4-(methylsulfonyl)benzyl)piperazine-1-carbonyl)-N-(1-(3-(trifluoromethoxy)benzyl)piperidin-4-yl)benzofuran-2-carboxamide] |
| < 0.1 | CS(=O)(=O)c1ccc(CN2CCN(C(=O)c3ccc4oc(C(=O)NC5CCN(Cc6cccc(C(F)(F)F)c6)CC5)cc4c3)CC2)cc1 [Compound 6-147, 5-(4-(4-(methylsulfonyl)benzyl)piperazine-1-carbonyl)-N-(1-(3-(trifluoromethyl)benzyl)piperidin-4-yl)benzofuran-2-carboxamide] |
| < 0.1 | CS(=O)(=O)c1ccc(CN2CCN(C(=O)c3ccc4oc(C(=O)NC5CCN(Cc6ccc(-n7cccn7)cc6)CC5)cc4c3)CC2)cc1 [Compound 6-148, N-(1-(4-(1H-pyrazol-1-yl)benzyl)piperidin-4-yl)-5-(4-(4-(methylsulfonyl)benzyl)piperazine-1-carbonyl) benzofuran-2-carboxamide] |
| < 0.1 | CS(=O)(=O)c1cccc(CN2CCN(C(=O)c3ccc4oc(C(=O)NC5CCN(Cc6ccc(C(F)(F)F)cc6)CC5)cc4c3)CC2)c1 [Compound 6-149, 5-(4-(3-(methylsulfonyl)benzyl)piperazine-1-carbonyl)-N-(1-(4-(trifluoromethyl)benzyl)piperidin-4-yl)benzofuran-2-carboxamide] |
| < 0.1 | CS(=O)(=O)c1cccc(CN2CCN(C(=O)c3ccc4oc(C(=O)NC5CCN(Cc6ccc(C#N)c(F)c6)CC5)cc4c3)CC2)c1 [Compound 6-150, N-(1-(4-cyano-3-fluorobenzyl)piperidin-4-yl)-5-(4-(3-(methylsulfonyl)benzyl)piperazine-1-carbonyl) benzofuran-2-carboxamide] |
| < 0.1 | CS(=O)(=O)c1cccc(CN2CCN(C(=O)c3ccc4oc(C(=O)NC5CCN(Cc6cccc(OC(F)(F)F)c6)CC5)cc4c3)CC2)c1 [Compound 6-151, 5-(4-(3-(methylsulfonyl)benzyl)piperazine-1-carbonyl)-N-(1-(3-(trifluoromethoxy)benzyl)piperidin-4-yl)benzofuran-2-carboxamide] |
| < 0.1 | CS(=O)(=O)c1cccc(CN2CCN(C(=O)c3ccc4oc(C(=O)NC5CCN(Cc6ccc(-n7cccn7)cc6)CC5)cc4c3)CC2)c1 [Compound 6-153, N-(1-(4-(1H-pyrazol-1-yl)benzyl)piperidin-4-yl)-5-(4-(3-(methylsulfonyl)benzyl)piperazine-1-carbonyl) benzofuran-2-carboxamide] |
| < 0.1 | COc1ccc(CN2CCC(NC(=O)c3cc4cc(C(=O)N5CCN(Cc6ccc(S(C)(=O)=O)cc6)CC5)ccc4o3)CC2)cc1F [Compound 6-154, N-(1-(3-fluoro-4-methoxybenzyl)piperidin-4-yl)-5-(4-(4-(methylsulfonyl)benzyl)piperazine-1-carbonyl) benzofuran-2-carboxamide] |
| < 0.1 | CS(=O)(=O)c1ccc(OC2CCN(C(=O)c3ccc4oc(C(=O)N[C@@H]5CCN(Cc6ccc(OC(F)(F)F)cc6)C[C@H]5F)cc4c3)CC2)cc1 [Compound 6-155, N-((3,4-trans)-3-fluoro-1-(4-(trifluoromethoxy)benzyl)piperidin-4-yl)-5-(4-(4-(methylsulfonyl)phenoxy)piperidine-1-carbonyl) benzofuran-2-carboxamide] |
| < 0.1 | CS(=O)(=O)c1ccc(CN2CCN(C(=O)c3ccc4oc(C(=O)NC5CCN(Cc6ccc(OC(F)(F)C(F)F)cc6)CC5)cc4c3)CC2)cc1 [Compound 6-156, 5-(4-(4-(methylsulfonyl)benzyl)piperazine-1-carbonyl)-N-(1-(4-(1,1,2,2-tetrafluoroethoxy)benzyl)piperidin-4-yl)benzofuran-2-carboxamide] |
| < 0.1 | CS(=O)(=O)c1ccc(CN2CCN(C(=O)c3ccc4oc(C(=O)NC5CCN(Cc6cccc(OC(F)(F)C(F)F)c6)CC5)cc4c3)CC2)cc1 [Compound 6-157, 5-(4-(4-(methylsulfonyl)benzyl)piperazine-1-carbonyl)-N-(1-(3-(1,1,2,2-tetrafluoroethoxy)benzyl)piperidin-4-yl)benzofuran-2-carboxamide] |
| 0.1 to 1 | CS(=O)(=O)c1ccc(CN2CCN(C(=O)c3ccc4oc(C(=O)NC5CCN(Cc6ccc(OC(F)(F)F)c(Cl)c6)CC5)cc4c3)CC2)cc1 [Compound 6-158, N-(1-(3-chloro-4-(trifluoromethoxy)benzyl)piperidin-4-yl)-5-(4-(4-(methylsulfonyl)benzyl)piperazine-1-carbonyl) benzofuran-2-carboxamide] |
